Experimental data from patent publication US9518038B2, “Condensation product of theanine derivative and carboxylic acid coumarin derivative, its intermediate, preparation method and use thereof” (SHANDONG YINGDONG YINGHAO BIOTECHNOLOGY, INC., priority 2012, dated 2016).
Like-named read-outs stand apart in the source and are kept apart here.

What was measured:
[1] = system: human breast cancer cells MDA-MB-231; experiment: MTT growth inhibition, MDA-MB-231 cells; type: cell-based; details: 72 h after treatment, read-out: Drug concentration (IC50) at which 50% cancer cells survived
Source text: (§1) Cell lines and cell culture: human lung cancer cells A549 and H460, human breast cancer cells MCF-7 and MDA-MB-231, human gastric cancer cells BGC-823, human prostate cancer cells PC-3, human chronic leukemia cells K562, human lymphoma cells U937, human liver cancer cells SMMC7721 and HepG2, human colon cancer cells HT29, human pancreatic cancer cells PANC-1 and BxPC3, human cervical cancer Hela cell lines, human brain tumor cells Daoy, human neuroma cells D54 and human oral epidermoid cancer cells KBV200 line with strong drug resistance, mouse melanoma cells B16, and highly metastatic Lewis lung cancer cell lines were purchased from American Type Culture Collection of the U.S. These cells were cultured with DMEM and RPMI-1640 culture solutions separately.
(§2) The procedure was as follows:
(§3) (1) 0.25% trypsin was used to digest cancer cells in a logarithmic growth phase to prepare a single-cell suspension, the concentration of cells was adjusted to 5×10^4/mL, and the adjusted suspension was inoculated into a 96-well culture plate with 100 μl per well;
(§4) (2) The culture plate was transferred into a 37° C. incubator with a saturated humidity and 5% of CO2 and cultured for 24 h; the compounds and the intermediates thereof obtained in embodiments 1-7 and the compound as represented by formula (IIIa) or the positive control anti-cancer drug with the concentration of 1-1000 μM/L were added to enable the final concentration to be 0.1-1500 μM/L. Control wells (only added with 200 μl of cell suspension) and drug-free blank control wells (containing the solvent of 0.01% DMSO) were set, each group included 8 wells, and the plate was placed into the 37° C. incubator with saturated humidity and 5% of CO2 for culturing;
(§5) (3) The 96-well plate was taken out at 48 h and 72 h after dosing, the original culture medium was carefully removed by suction, 100 μl of serum-free DMEM culture medium and 10 μl of MTT (5 mg/mL) solution were added in each well. The plate was continuously cultured for another 4 h and then the culture was terminated;
(§6) (4) The supernatant in the wells was carefully removed by suction, each well was added with 150 μl of DMSO and shaked at room temperature for 10-15 min to fully dissolve crystals.
(§7) (5) Colorimetric analysis: the wavelength was selected as 570 nm, the light absorbance (A value) of each well was determined on the microplate reader and the results were recorded; the experiment was repeated for three times;
(§8) (6) the experimental results were calculated according to the following formula: relative survival rate=(A value of each experimental group/A value of cell control group)×100%
(§9) Calculation of median-effect concentration (IC50, namely the drug concentration at which the inhibition rate is 50%, also known as half inhibitory concentration):
(§10) IC50 of the detected component was calculated by using a regression equation.

[2] = system: human pancreatic cancer cells PANC-1; experiment: MTT growth inhibition, PANC-1 cells; type: cell-based; details: 72 h after treatment, read-out: Drug concentration (IC50) at which 50% cancer cells survived
Source text: as §1, §2, §3, §4, §5, §6, §7, §8, §9, §10

[3] = system: human lung cancer cells A549; experiment: MTT growth inhibition, A549 cells; type: cell-based; details: 72 h after treatment, read-out: Drug concentration (IC50) at which 50% cancer cells survived
Source text: as §1, §2, §3, §4, §5, §6, §7, §8, §9, §10

[4] = system: human colon cancer cells HT29; experiment: MTT growth inhibition, HT29 cells; type: cell-based; details: HT-29, 72 h after treatment, read-out: Drug concentration (IC50) at which 50% cancer cells survived
Source text: as §1, §2, §3, §4, §5, §6, §7, §8, §9, §10

[5] = system: mouse melanoma cells B16; experiment: MTT growth inhibition, B16 cells; type: cell-based; details: 72 h after treatment, read-out: Drug concentration (IC50) at which 50% cancer cells survived
Source text: as §1, §2, §3, §4, §5, §6, §7, §8, §9, §10

[6] = system: human lung cancer cells H460; experiment: MTT growth inhibition, H460 cells; type: cell-based; details: NCI-H460, 72 h after treatment, read-out: Drug concentration (IC50) at which 50% cancer cells survived
Source text: as §1, §2, §3, §4, §5, §6, §7, §8, §9, §10

[7] = system: human chronic leukemia cells K562; experiment: MTT growth inhibition, K562 cells; type: cell-based; details: 72 h after treatment, read-out: Drug concentration (IC50) at which 50% cancer cells survived
Source text: as §1, §2, §3, §4, §5, §6, §7, §8, §9, §10

[8] = system: human prostate cancer cells PC-3; experiment: MTT growth inhibition, PC-3 cells; type: cell-based; details: 72 h after treatment, read-out: Drug concentration (IC50) at which 50% cancer cells survived
Source text: as §1, §2, §3, §4, §5, §6, §7, §8, §9, §10

[9] = system: human liver cancer cells SMMC7721; experiment: MTT growth inhibition, SMMC7721 cells; type: cell-based; details: SMMC-7721, S-7721 (SMMC7721), 72 h after treatment, read-out: Drug concentration (IC50) at which 50% cancer cells survived
Source text: as §1, §2, §3, §4, §5, §6, §7, §8, §9, §10

[10] = system: highly metastatic Lewis lung cancer cell lines; experiment: MTT growth inhibition, LLC cells; type: cell-based, mouse; details: Mus musculus, Lewis lung carcinoma, 72 h after treatment, read-out: Drug concentration (IC50) at which 50% cancer cells survived
Source text: as §1, §2, §3, §4, §5, §6, §7, §8, §9, §10

[11] = system: human lymphoma cells U937; experiment: MTT growth inhibition, U937 cells; type: cell-based; details: read-out: Drug concentration (IC50) at which 50% cancer cells survived
Procedure: as §2, §5, §6, §7, §8, §10

[12] = system: human gastric cancer cells BGC-823; experiment: MTT growth inhibition, BGC-823 cells; type: cell-based; details: 72 h after treatment, read-out: Drug concentration (IC50) at which 50% cancer cells survived
Source text: as §1, §2, §3, §4, §5, §6, §7, §8, §9, §10

[13] = system: human breast cancer cells MCF-7; experiment: MTT growth inhibition, MCF-7 cells; type: cell-based; details: MCF7, 72 h after treatment, read-out: Drug concentration (IC50) at which 50% cancer cells survived
Source text: as §1, §2, §3, §4, §5, §6, §7, §8, §9, §10

[14] = system: human cervical cancer Hela cell lines; experiment: MTT growth inhibition, Hela cells; type: cell-based; details: 72 h after treatment, read-out: Drug concentration (IC50) at which 50% cancer cells survived
Source text: as §1, §2, §3, §4, §5, §6, §7, §8, §9, §10

[15] = system: human neuroma cells D54; experiment: MTT growth inhibition, D54 cells; type: cell-based; details: 72 h after treatment, read-out: Drug concentration (IC50) at which 50% cancer cells survived
Source text: as §1, §2, §3, §4, §5, §6, §7, §8, §9, §10

[16] = system: human liver cancer cells HepG2; experiment: MTT growth inhibition, HepG2 cells; type: cell-based; details: 72 h after treatment, read-out: Drug concentration (IC50) at which 50% cancer cells survived
Source text: as §1, §2, §3, §4, §5, §6, §7, §8, §9, §10

[17] = system: Caski human cervical cancer cells; experiment: MTT growth inhibition, Caski cells; type: cell-based; details: Ca-Ski, 72 h after treatment, read-out: Drug concentration (IC50) at which 50% cancer cells survived
[18] = system: human brain tumor cells Daoy; experiment: MTT growth inhibition, Daoy cells; type: cell-based; details: 72 h after treatment, read-out: Drug concentration (IC50) at which 50% cancer cells survived
Source text: as §1, §2, §3, §4, §5, §6, §7, §8, §9, §10

[19] = system: human oral epidermoid cancer cells KBV200; experiment: MTT growth inhibition, KBV200 cells; type: cell-based; details: 72 h after treatment, read-out: Drug concentration (IC50) at which 50% cancer cells survived
Source text: as §1, §2, §3, §4, §5, §6, §7, §8, §9, §10

[20] = system: human pancreatic cancer cells BxPC3; experiment: MTT growth inhibition, BxPc3 cells; type: cell-based; details: Homo sapiens, BXPC-3, 72 h after treatment, read-out: Drug concentration (IC50) at which 50% cancer cells survived
Source text: as §1, §2, §3, §4, §5, §6, §7, §8, §9, §10

[21] = system: human cervical cancer cells Hela xenograft; experiment: In-vivo growth of Hela xenografts in nude mice; parameters: species or system BALB/c nude mice; details: positive controls: cisplatin 1.5 mg/kg/day, endostar 8 mg/kg
Procedure: (§11) RPMI1640 and DMEM culture solutions: Hyclone Company; inactivated fetal bovine serum: Hyclone Company, preserved at −20° C.; trypsin: Amersco Company; and 0.4% trypan blue: Sigma Company;
(§12) (3) Observation of growth of tumors in nude mice: the activities (including food intake, traits of urine and stool, mental state and the like) of the nude mice and the tumor growth time and growth situation of the transplanted tumors were observed every day, the body weight and the size of the tumors were measured once every 2-3 days. The long diameter a and the short diameter b (mm) of each tumor were measured by a vernier caliper to calculate the volume, wherein the volume V=π1/2·ab^2 (mm^3);
(§13) (4) sacrifice of animals: the mice were anesthetized and photoed after treatment experiments; the nude mice were sacrificed by breaking neck, the tumor tissues were stripped under sterile conditions and the weight of the tumors was weighed; and the effects of the drugs on pathology and toxicity of the various organs and tissues were detected.

[22] = system: human breast cancer cells MCF-7 xenograft; experiment: In-vivo growth of MCF-7 xenografts in nude mice; parameters: species or system BALB/c nude mice; details: positive controls: cisplatin 1.5 mg/kg/day, cyclophosphamide 60 mg/kg/2 day, endostar 8 mg/kg
Procedure: as §11, §12, §13

[23] = system: human liver cancer cells SMMC7721 xenograft; experiment: In-vivo growth of SMMC7721 xenografts in nude mice; parameters: species or system BALB/c nude mice; details: S-7721 xenograft; positive controls: cisplatin 1.5 mg/kg/day, cyclophosphamide 60 mg/kg/2 day, endostar 8 mg/kg
Procedure: as §11, §12, §13

[24] = system: human pancreatic cancer cells PANC-1 xenograft; experiment: In-vivo growth of PANC-1 xenografts in nude mice; parameters: species or system BALB/c nude mice; details: positive controls: cisplatin 1.5 mg/kg/day, endostar 8 mg/kg
Procedure: as §11, §12, §13

[25] = system: human lung cancer cells A549 xenograft; experiment: In-vivo growth of A549 xenografts in nude mice; parameters: species or system BALB/c nude mice; details: positive controls: cisplatin 1.5 mg/kg/day, cyclophosphamide 60 mg/kg/2 day, endostar 8 mg/kg
Procedure: as §11, §12, §13

[26] = system: human breast cancer cells MDA-MB231 xenograft; experiment: In-vivo growth of MDA-MB231 xenografts in nude mice; parameters: species or system BALB/c nude mice; details: MB-231 xenograft; positive controls: cisplatin 1.5 mg/kg/day, cyclophosphamide 60 mg/kg/2 day, endostar 8 mg/kg
Procedure: as §11, §12, §13

[27] = Homo sapiens, U-937, 72 h after treatment

SMILES | IC50 [1] [µM] | IC50 [2] [µM] | IC50 [3] [µM] | IC50 [4] [µM] | IC50 ([5]; Mus musculus) [µM] | IC50 [6] [µM] | IC50 [7] [µM] | IC50 [8] [µM] | IC50 [9] [µM] | IC50 [10] [µM] | IC50 [11, 27] [µM] | IC50 [12] [µM] | IC50 [13] [µM] | IC50 ([14]; Homo sapiens) [µM] | IC50 ([15]; Homo sapiens) [µM] | IC50 [16] [µM] | IC50 [17] [µM] | IC50 ([18]; Homo sapiens) [µM] | IC50 [19] [µM] | IC50 [20] [µM] | other results
O=C(O)c1cc2cc(Br)ccc2oc1=O [Compound IIId, 6-bromocoumarin-3-carboxylic acid] | 500 | 500 | 600 | 700 | 600 | 500 | 600 | 500 | 500 | 400 | 500 | 700 ± 50 | 400 | 600 |  |  |  |  |  |  | 
O=C(O)c1cc2cc(Cl)cc(Cl)c2oc1=O [Compound IIIg, 6,8-dichloro-coumarin-3-carboxylic acid] | 460 | 430 | 330 | 480 | 500 | 400 | 420 | 310 | 490 | 250 | 350 | 380 | 410 | 260 | 300 | 420 | 250 | 350 | 300 | 300 | 
N.N.[Cl][Pt][Cl] [Cisplatin, reference compound] |  |  |  |  |  |  |  |  |  |  |  |  |  |  |  |  |  |  |  |  | Curative effect (inhibition rate %) of tumor weight [21]: A.36.6% ± 7.5; Curative effect (inhibition rate %) of tumor weight [22]: A.39.9% ± 7.8;; IC50 [15]: 21 µM; Curative effect (inhibition rate %) of tumor weight [23]: A.69.6% ± 7.9;; IC50 [5]: 67 ± 30 µM; IC50 [18]: 1.6 µM; Curative effect (inhibition rate %) of tumor weight [24]: A/25.3% ± 7.7; Curative effect (inhibition rate %) of tumor weight [25]: A/46.7% ± 6.5*;; Curative effect (inhibition rate %) of tumor weight [26]: A/61.3% ± 6.7*;; IC50 [14]: 66 µM
N.N.O=C([O-])C1(C(=O)[O-])CCC1.[Pt+2] [Carboplatin, reference compound] |  |  |  |  |  |  |  |  |  |  |  |  |  |  |  |  |  |  |  |  | IC50 ([11]; 72 h after treatment): 58 ± 30 µM
COc1cccc2c1C(=O)c1c(O)c3c(c(O)c1C2=O)C[C@@](O)(C(C)=O)C[C@@H]3O[C@H]1C[C@H](N)[C@H](O)[C@H](C)O1 [Daunorubicin, reference compound] |  | 55 |  | 63 |  | 63 |  | 51 |  |  |  | 68 | 58 |  |  |  |  |  | 1 |  | 
O=C(O)c1cc2cc(F)ccc2oc1=O [Compound IIIe, 6-fluorocoumarin-3-carboxylic acid] | 520 | 480 | 450 | 570 | 600 | 450 | 300 | 520 | 490 | 380 | 560 | 700 | 390 | 600 | 300 | 400 | 380 | 500 | 300 | 500 | 
